Data published in PubChem BioAssay (NCI).
Where “and” joins values, the source holds several entries; their conditions need not be identical. Identical values can stand only once.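 96-well plates; 48 h exposure; 5 concentrations. Endpoints by linear interpolation between flanking doses. Not reached: highest tested concentration assigned. Here, GI50 denotes the concentration required for 50% inhibition of growth. At the TGI there is no net growth.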

Assays:
Experiment in all cases: DTP human tumour cell line panel, 48 h
OVCAR-8 ovarian = tested on: OVCAR-8 ovarian
KM12 colon = tested on: KM12 colon
K-562 leukemia = tested on: K-562 leukemia
SK-MEL-5 melanoma = tested on: SK-MEL-5 melanoma
HCT-116 colon = tested on: HCT-116 colon
MALME-3M melanoma = tested on: MALME-3M melanoma
HL-60(TB) leukemia = tested on: HL-60(TB) leukemia
HT29 colon = tested on: HT29 colon
SF-268 CNS = tested on: SF-268 CNS
MOLT-4 leukemia = tested on: MOLT-4 leukemia

N#CCCN(CCC#N)c1ccc(C=Nc2ccc(F)cc2)cc1
TGI (OVCAR-8 ovarian): > 100 µM
TGI (KM12 colon): > 100 µM
TGI (K-562 leukemia): > 100 µM
TGI (SK-MEL-5 melanoma): > 100 µM
TGI (HCT-116 colon): > 100 µM
TGI (MALME-3M melanoma): > 100 µM
TGI (HL-60(TB) leukemia): > 100 µM
TGI (HT29 colon): > 100 µM
TGI (SF-268 CNS): > 100 µM
TGI (MOLT-4 leukemia): > 100 µM

CC(=O)OCC1OC(n2c(=S)n(-c3ccccc3)c(=O)c3cc(Br)cc(Br)c32)C(OC(C)=O)C(OC(C)=O)C1OC(C)=O (stereo unspecified)
TGI (OVCAR-8 ovarian): > 100 µM
TGI (KM12 colon): > 100 µM
TGI (K-562 leukemia): > 100 µM
TGI (SK-MEL-5 melanoma): > 100 µM
TGI (HCT-116 colon): > 100 µM
TGI (MALME-3M melanoma): > 100 µM
TGI (HL-60(TB) leukemia): > 100 µM
TGI (HT29 colon): > 100 µM
GI50 (SF-268 CNS): 35.2 µM and 94.8 µM
TGI (SF-268 CNS): > 100 µM
GI50 (MOLT-4 leukemia): 36.8 µM
TGI (MOLT-4 leukemia): > 100 µM

COc1cc(OC)cc(-c2ccc(-c3ccc(C(=N)N)cn3)s2)c1
GI50 (OVCAR-8 ovarian): 2.3 µM
TGI (OVCAR-8 ovarian): 5.3 µM
GI50 (KM12 colon): 1.84 µM
TGI (KM12 colon): 3.48 µM
GI50 (K-562 leukemia): 2.22 µM
TGI (K-562 leukemia): 6.19 µM
GI50 (SK-MEL-5 melanoma): 1.77 µM
TGI (SK-MEL-5 melanoma): 3.16 µM
GI50 (HCT-116 colon): 1.9 µM
TGI (HCT-116 colon): 3.64 µM
GI50 (MALME-3M melanoma): 1.87 µM
TGI (MALME-3M melanoma): 3.56 µM
GI50 (HL-60(TB) leukemia): 2.06 µM
TGI (HL-60(TB) leukemia): 4.48 µM
GI50 (HT29 colon): 2.11 µM
TGI (HT29 colon): 4.89 µM
GI50 (SF-268 CNS): 1.73 µM
TGI (SF-268 CNS): 3.35 µM
GI50 (MOLT-4 leukemia): 2.55 µM
TGI (MOLT-4 leukemia): 6.39 µM

Clc1ccc2c(NCCCN3CCN(c4nc(N5CCOCC5)nc5ccccc45)CC3)ccnc2c1
GI50 (OVCAR-8 ovarian): 1.98 µM
TGI (OVCAR-8 ovarian): 4.47 µM
GI50 (K-562 leukemia): 0.402 µM
TGI (K-562 leukemia): 3.75 µM
GI50 (SK-MEL-5 melanoma): 1.73 µM
TGI (SK-MEL-5 melanoma): 3.12 µM
GI50 (HCT-116 colon): 1.25 µM
TGI (HCT-116 colon): 2.59 µM
GI50 (MALME-3M melanoma): 1.9 µM
TGI (MALME-3M melanoma): 3.49 µM
GI50 (HL-60(TB) leukemia): 1.35 µM
TGI (HL-60(TB) leukemia): 3.95 µM
GI50 (HT29 colon): 1.62 µM
TGI (HT29 colon): 3.71 µM
GI50 (SF-268 CNS): 2.21 µM
TGI (SF-268 CNS): 5.51 µM
GI50 (MOLT-4 leukemia): 1.36 µM
TGI (MOLT-4 leukemia): 3.9 µM

COc1ccc(-c2cc(-c3ccco3)c(C#N)c(=O)[nH]2)cc1
TGI (OVCAR-8 ovarian): > 100 µM
TGI (KM12 colon): > 100 µM
TGI (K-562 leukemia): > 100 µM
TGI (HCT-116 colon): > 100 µM
TGI (MALME-3M melanoma): 75.7 µM
TGI (HL-60(TB) leukemia): > 100 µM
TGI (HT29 colon): > 100 µM
TGI (SF-268 CNS): > 100 µM
TGI (MOLT-4 leukemia): > 100 µM

O=C(C(=O)c1cc(Br)ccc1O)c1cc(Br)ccc1O
GI50 (OVCAR-8 ovarian): 7.46 µM
TGI (OVCAR-8 ovarian): 40.5 µM
GI50 (KM12 colon): 3.21 µM
TGI (KM12 colon): 11.4 µM
GI50 (K-562 leukemia): 2.82 µM
TGI (K-562 leukemia): > 100 µM
GI50 (HCT-116 colon): 3.38 µM
TGI (HCT-116 colon): 12.7 µM
GI50 (MALME-3M melanoma): 2.24 µM
TGI (MALME-3M melanoma): 6.12 µM
GI50 (HL-60(TB) leukemia): 2.2 µM
TGI (HL-60(TB) leukemia): 6.16 µM
GI50 (HT29 colon): 14.6 µM
TGI (HT29 colon): > 100 µM
GI50 (SF-268 CNS): 3.41 µM
TGI (SF-268 CNS): 21.1 µM
GI50 (MOLT-4 leukemia): 3.28 µM
TGI (MOLT-4 leukemia): 19.9 µM

O=C(Nc1ccc(C(F)(F)F)cc1[N+](=O)[O-])c1cccnc1
TGI (KM12 colon): > 100 µM
TGI (K-562 leukemia): > 100 µM
TGI (SK-MEL-5 melanoma): > 100 µM
TGI (HCT-116 colon): > 100 µM
TGI (MALME-3M melanoma): 8.32 µM
TGI (HL-60(TB) leukemia): > 100 µM
TGI (SF-268 CNS): 30.6 µM
TGI (MOLT-4 leukemia): > 100 µM

COc1ccc(OCC(O)CN2CCN(c3ccc(Cl)cc3)CC2)cc1 (stereo unspecified)
GI50 (OVCAR-8 ovarian): 88.5 µM
TGI (OVCAR-8 ovarian): > 100 µM
GI50 (KM12 colon): > 100 µM
TGI (KM12 colon): > 100 µM
GI50 (K-562 leukemia): > 100 µM
TGI (K-562 leukemia): > 100 µM
GI50 (HCT-116 colon): > 100 µM
TGI (HCT-116 colon): > 100 µM
GI50 (MALME-3M melanoma): 59.7 µM
TGI (MALME-3M melanoma): > 100 µM
GI50 (HL-60(TB) leukemia): > 100 µM
TGI (HL-60(TB) leukemia): > 100 µM
GI50 (HT29 colon): > 100 µM
TGI (HT29 colon): > 100 µM
GI50 (SF-268 CNS): 80.6 µM
TGI (SF-268 CNS): > 100 µM
GI50 (MOLT-4 leukemia): > 100 µM
TGI (MOLT-4 leukemia): > 100 µM

N/C(=N\C(N)=N\c1nc2ccccc2s1)c1cnccn1
GI50 (OVCAR-8 ovarian): 3.11 µM
TGI (OVCAR-8 ovarian): 26.5 µM
GI50 (KM12 colon): 3.37 µM
TGI (KM12 colon): > 100 µM
GI50 (K-562 leukemia): 3.69 µM
TGI (K-562 leukemia): > 100 µM
GI50 (SK-MEL-5 melanoma): 2.29 µM
TGI (SK-MEL-5 melanoma): 5.89 µM
GI50 (MALME-3M melanoma): 2.27 µM
TGI (MALME-3M melanoma): 5.66 µM
GI50 (HL-60(TB) leukemia): 2.68 µM
TGI (HL-60(TB) leukemia): 51.5 µM
GI50 (HT29 colon): 2.87 µM
TGI (HT29 colon): > 100 µM
GI50 (SF-268 CNS): 4.74 µM
TGI (SF-268 CNS): > 100 µM
GI50 (MOLT-4 leukemia): 3.48 µM
TGI (MOLT-4 leukemia): > 100 µM

COc1ccc(C(=O)O/N=C2/CCCCC2CN(C)C)cc1 (stereo unspecified)
TGI (OVCAR-8 ovarian): > 100 µM
TGI (KM12 colon): > 100 µM
TGI (K-562 leukemia): > 100 µM
TGI (SK-MEL-5 melanoma): > 100 µM
TGI (HCT-116 colon): > 100 µM
TGI (MALME-3M melanoma): > 100 µM
TGI (HL-60(TB) leukemia): > 100 µM
TGI (HT29 colon): > 100 µM
TGI (MOLT-4 leukemia): > 100 µM

COC(=O)c1ccc2[nH]c(O)c(C(=Nc3ccc(N(C)C(=O)CN4CCN(C)CC4)cc3)c3ccccc3)c2c1
GI50 (OVCAR-8 ovarian): 1.61 µM
TGI (OVCAR-8 ovarian): 7.1 µM
GI50 (KM12 colon): 0.0353 µM
TGI (KM12 colon): 5.52 µM
GI50 (K-562 leukemia): 0.241 µM
TGI (K-562 leukemia): 11.9 µM
GI50 (SK-MEL-5 melanoma): 1.35 µM
TGI (SK-MEL-5 melanoma): 2.69 µM
GI50 (HCT-116 colon): 0.343 µM
TGI (HCT-116 colon): 3.06 µM
GI50 (MALME-3M melanoma): 1.43 µM
TGI (MALME-3M melanoma): 2.86 µM
GI50 (HL-60(TB) leukemia): 0.835 µM
TGI (HL-60(TB) leukemia): 3.12 µM
GI50 (SF-268 CNS): 1.33 µM
TGI (SF-268 CNS): 7.94 µM
GI50 (MOLT-4 leukemia): 0.389 µM
TGI (MOLT-4 leukemia): 4.56 µM

CC1CC(C)C(C(O)CC2CC(=O)N(c3ccccc3)C(=O)C2)C(O)C1 (stereo unspecified)
TGI (OVCAR-8 ovarian): > 100 µM
TGI (KM12 colon): > 100 µM
TGI (K-562 leukemia): > 100 µM
TGI (HCT-116 colon): > 100 µM
TGI (MALME-3M melanoma): > 100 µM
TGI (HL-60(TB) leukemia): > 100 µM
TGI (HT29 colon): > 100 µM
TGI (SF-268 CNS): > 100 µM
TGI (MOLT-4 leukemia): > 100 µM

c1ccc2c3c([nH]c2c1)C1C2CCCCN2C(c2ccncc2)N1CC3 (stereo unspecified)
TGI (OVCAR-8 ovarian): > 100 µM
TGI (KM12 colon): > 100 µM
TGI (K-562 leukemia): > 100 µM
TGI (SK-MEL-5 melanoma): > 100 µM
TGI (HCT-116 colon): > 100 µM
TGI (MALME-3M melanoma): > 100 µM
TGI (HL-60(TB) leukemia): 52.5 µM
TGI (HT29 colon): > 100 µM
TGI (MOLT-4 leukemia): > 100 µM
